Data: patent US9765115B2, “Inhibitors of metastasis, methods of generating such inhibitors and their therapeutic applications” (Board of Supervisors of Louisiana State University acting …, priority 2011, dated 2017)

Key:
PC-3CTRΔESS cells [1] = assay: Matrigel in vitro invasion assay; type: cell-based; settings: 50 nM CT, 48 h
Description: Invasion experiments were conducted in Matrigel™ invasion chambers as previously described (Sabbisetti et al., 2005).
CT increases invasiveness, and even induces an invasive phenotype in non-invasive prostate cancer cells. The role of PDZ-binding motif in CT-stimulated invasion was examined. FIG. 2C depicts CTR-C PDZ-binding motif mutation and effects on cell invasion. PC-3V, PC-3 CTRwt and PC-3 CTRΔESS cells were added to upper insert of invasion chambers with or without 50 nM CT, and cells that passed through the Matrigel™ barrier were counted after 48 h. The results are expressed as mean number of invaded cells per 400× field ±SEM (n=6; *p<0.05 (PC-3V v PC-3CTR-wt); $ p<0.05 (PC-3CTR-wt v PC-3CTRΔESS); $$-p<0.05 (PC-3CTRwt+CT v PC-3CTRΔESS+CT) (one-way ANOVA and Newman-Keul's test)). Expression of CTRwt in PC-3 cells increased invasion by 2.5-fold (FIG. 2C).

[2] = tested on: LNCaP, PC-3M and DU-145 cell lines; assay: Transepithelial electric resistance (TER); type: cell-based; settings: 50 nM CT
Description: Cells were plated on Transwell filters (0.4 μm pore size) and grown to confluency in complete medium (RPMI1640 containing 10% fetal bovine serum, 20 mM HEPES and antibiotics). TER of the cultures (in duplicate wells) was measured at several time intervals with EVOM volt-ohm meter as previously described (Shah et al, 2009). The readings were corrected for blank (TER values from the filter in bathing medium). The integrity and cell density of monolayers were carefully monitored.
Whether CT produces similar effects in LNCaP, PC-3M and DU-145 cell lines, which endogenously express CTR, was examined as shown in FIG. 1A. FIGS. 9A-9B depict the effect of CT on tight junction (TJ) disruption as measured using TER and PCP in the three prostate cancer cell lines—LNCaP, PC-3M, and DU-145. […] In FIG. 9B, cells were treated with and without 50 nM CT, and PCP determined by diffusion of ˜4 kDa TRITC-conjugated dextran from the upper to the lower chamber in one hour. The results are expressed as μg/ml/hour of TRITC-Dextran diffused ±SEM (n=6; *p<0.05 (−CT v +CT, One way ANOVA and Newman-Keul's test)). […] Cells were added to upper insert of invasion chambers with or without 50 nM CT, and cells that passed through the Matrigel™ barrier were counted after 48 h. The results are expressed as mean number of invaded cells per 400× field ±SEM (n=6; *p<0.05).

PC-3CTRΔESS cells [3] = assay: Paracellular permeability (PCP), TRITC-dextran diffusion; type: cell-based
Description: (§1) For PCP measurements, cells were grown to confluence on Transwell filters. Tetra methyl rhodamine-dextran (1 mg/ml, ˜4 kDa, Sigma) was added to the upper chamber. Fluorescence of the lower chamber medium was measured in Modulus Microplate Reader (Turner Biosystems) at various time intervals.
(§2) TJs form a barrier that regulates the movement of ions, solutes and growth factors between cells. To detect whether CT affects the barrier, the diffusion of fluorophore-conjugated dextran was measured across polarized PC cell line monolayers, a procedure called paracellular permeability (PCP). FIG. 2B depicts CTR-C PDZ-binding motif mutation and tight junction (TJ) disruption as measured using PCP. Polarized PC-3V, PC-3-CTRwt and PC-3CTRΔESS cells were treated with or without 50 nM CT, and PCP determined by diffusion of ˜4 kDa TRITC-conjugated dextran from the upper to the lower chamber in one hour. The results are expressed as μg/ml/hour of TRITC-Dextran diffused ±SEM (n=6; *p<0.05 (−CT v +CT, One way ANOVA and Newman-Keul's test)). […] In contrast, CTRΔESS expression had little effect on PCP in the presence or absence of CT.

PC-3V cells = assay: as above; type: cell-based; settings: 50 nM CT
Description: as §1, §2

[4] = tested on: calcitonin receptor (CTR); assay: cAMP accumulation (radioimmunoassay) in PC-3 CTRwt and PC-3 CTRΔESS cells; type: cell-based, human; settings: 3 min
Chain of calcitonin receptor (CTR) (P30988 25-470 limits assumed): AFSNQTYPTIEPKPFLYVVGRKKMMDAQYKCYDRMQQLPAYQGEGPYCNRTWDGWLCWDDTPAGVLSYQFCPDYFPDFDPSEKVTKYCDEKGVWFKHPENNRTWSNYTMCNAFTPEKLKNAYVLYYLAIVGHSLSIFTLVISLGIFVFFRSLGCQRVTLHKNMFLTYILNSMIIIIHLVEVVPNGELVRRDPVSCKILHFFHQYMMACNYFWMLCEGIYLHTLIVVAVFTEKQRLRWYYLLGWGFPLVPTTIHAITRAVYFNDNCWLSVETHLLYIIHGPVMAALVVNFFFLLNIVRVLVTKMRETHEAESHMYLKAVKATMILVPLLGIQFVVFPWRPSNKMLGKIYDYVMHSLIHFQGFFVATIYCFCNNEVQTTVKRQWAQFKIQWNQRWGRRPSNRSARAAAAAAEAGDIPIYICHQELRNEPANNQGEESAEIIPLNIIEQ
Description: PC-3CTRwt and PC-3CTRΔESS cells were treated with/without 50 nM CT for three min, washed and harvested in lysis buffer (50 mM Tris, pH 7.5, containing 5 mM EDTA, 50 mM NaF, 1 mM sodium pyrophosphate, 0.5 mM EGTA, 10 mM β-mercaptoethanol, leupeptin, 1 μg/ml; and aprotinin, 1 μg/ml). The lysates were analyzed for cAMP levels by radioimmunoassay (Perkin Elmer, Shelton, Conn.).
FIG. 1C depicts photomicrographs showing CTRwt and CTRΔESS (a mutant) localized to the plasma membrane (at 400×) in PC-3 cells. To examine the ability of CTRwt and CTRΔESS to activate its G protein-coupled effectors, the effect of 50 nM CT was examined on cAMP accumulation and PKA and PKC activity. […] FIG. 1D depicts the effect of 50 nM CT on cAMP accumulation in PC-3 CTRwt and PC-3 CTRΔESS cells stimulated with or without 50 nM CT for 3 min. The cells were lysed, and the lysates were analyzed for cAMP levels by radioimmunoassay (*p<0.01 (paired t-test)).
The effect of CT on cAMP was further tested in a dose-response study where the response to CT at multiple doses (between 0-100 nM) was examined. FIG. 1G depicts cAMP accumulation in PC-3 CTR and PC-3 CTRΔESS cells in response to CT at multiple doses (between 0-100 nM) stimulated for 3 min (*p<0.01 (One-way ANOVA and Newman-Keuls test)).

calcitonin [CT] was tested, and the increase in invasion (PC-3CTRΔESS cells [1]) was “did not”, the TER [2] was “reduced TER” and the “PCP at multiple CT concentrations” value (PC-3CTRΔESS cells [3]; all tested concentrations) was “did not alter PCP”. For the same substance, the PCP (PC-3CTRΔESS cells [3]; presence or absence of 50 nM CT) was “little effect”, the PCP (PC-3V cells) was “did not alter it” and the cAMP accumulation ([4]; 50 nM CT, PC-3 CTRwt and PC-3CTRΔESS cells) was “stimulated cAMP production”. The “cAMP accumulation, dose-response” value ([4]; CT 0-100 nM, CTRwt and CTRΔESS cells, all doses) was “significantly increased”.
